Laboratory results from ChEMBL document CHEMBL3774313, “Natural product-based design, synthesis and biological evaluation of Albiziabioside A derivatives that selectively induce HCT116 cell death” (Eur J Med Chem, 2016).

Experiments:
HCT-116 [1] = assay: Induction of apoptosis in human HCT116 cells assessed as viable cells at 8 uM after 72 hrs by Annexin V/Propidium iodide staining based flow cytometric analysis (reference value: 92.47 %); assay type: functional; conditions: HCT-116, 72 h, read-out: Activity
[2] = Cell cycle arrest in human HCT116 cells assessed as accumulation at S phase at 8 uM after 72 hrs by Propidium iodide staining-based flow cytometric analysis (reference value: 37.29 %); assay type: functional; conditions: HCT-116
HaCaT = assay: Cytotoxicity against human HaCaT cells assessed as cell viability after 72 hrs by MTT assay; assay type: cell-based
[3] = Cytotoxicity against human LO2 cells assessed as cell viability after 72 hrs by MTT assay; assay type: cell-based; conditions: L02, 72 h
HCT-116 [4] = assay: Induction of apoptosis in human HCT116 cells assessed as late apoptotic cells at 2 uM after 72 hrs by Annexin V/Propidium iodide staining based flow cytometric analysis (reference value: 1.49 %); assay type: functional
HCT-116 [5] = assay: Induction of apoptosis in human HCT116 cells assessed as necrotic cells at 4 uM after 72 hrs by Annexin V/Propidium iodide staining based flow cytometric analysis (reference value: 0.97 %); assay type: functional
HCT-116 [6] = assay: Induction of apoptosis in human HCT116 cells assessed as mitochondrial membrane potential at 2 uM after 72 hrs by JC-1 staining based flow cytometric analysis (reference value: 98.02 %); assay type: functional
HCT-116 [7] = assay: Induction of apoptosis in human HCT116 cells assessed as viable cells at 2 uM after 72 hrs by Annexin V/Propidium iodide staining based flow cytometric analysis (reference value: 92.47 %); assay type: functional; conditions: HCT-116, 72 h, read-out: Activity
[8] = Cell cycle arrest in human HCT116 cells assessed as accumulation at G1 phase at 8 uM after 72 hrs by Propidium iodide staining-based flow cytometric analysis (reference value: 57.02 %); assay type: functional; conditions: HCT-116
[9] = Cell cycle arrest in human HCT116 cells assessed as accumulation at G1 phase at 4 uM after 72 hrs by Propidium iodide staining-based flow cytometric analysis (reference value: 57.02 %); assay type: functional; conditions: HCT-116
[10] = Antiproliferative activity against human HL60 cells assessed as cell viability after 72 hrs by MTT assay; assay type: functional, cell-based; conditions: HL-60, 72 h
[11] = Cell cycle arrest in human HCT116 cells assessed as accumulation at S phase at 4 uM after 72 hrs by Propidium iodide staining-based flow cytometric analysis (reference value: 37.29 %); assay type: functional; conditions: HCT-116
HCT-116 [12] = assay: Induction of apoptosis in human HCT116 cells assessed as early apoptotic cells at 2 uM after 72 hrs by Annexin V/Propidium iodide staining based flow cytometric analysis (reference value: 5.07 %); assay type: functional
[13] = Antiproliferative activity against human HCT116 cells assessed as cell viability after 72 hrs by MTT assay; assay type: functional, cell-based; conditions: HCT-116, 72 h
HCT-116 [14] = assay: Induction of apoptosis in human HCT116 cells assessed as late apoptotic cells at 8 uM after 72 hrs by Annexin V/Propidium iodide staining based flow cytometric analysis (reference value: 1.49 %); assay type: functional
[15] = Cell cycle arrest in human HCT116 cells assessed as accumulation at G2 phase at 4 uM after 72 hrs by Propidium iodide staining-based flow cytometric analysis (reference value: 5.69 %); assay type: functional; conditions: HCT-116
HCT-116 [16] = assay: Induction of apoptosis in human HCT116 cells assessed as late apoptotic cells at 4 uM after 72 hrs by Annexin V/Propidium iodide staining based flow cytometric analysis (reference value: 1.49 %); assay type: functional
[17] = Cell cycle arrest in human HCT116 cells assessed as accumulation at G1 phase at 2 uM after 72 hrs by Propidium iodide staining-based flow cytometric analysis (reference value: 57.02 %); assay type: functional; conditions: HCT-116
HeLa = assay: Antiproliferative activity against human HeLa cells assessed as cell viability after 72 hrs by MTT assay; assay type: functional, cell-based
HCT-116 [18] = assay: Induction of apoptosis in human HCT116 cells assessed as viable cells at 4 uM after 72 hrs by Annexin V/Propidium iodide staining based flow cytometric analysis (reference value: 92.47 %); assay type: functional; conditions: HCT-116, 72 h, read-out: Activity
[19] = Cytotoxicity against human CCD-841-CoN cells assessed as cell viability after 72 hrs by MTT assay; assay type: cell-based
HCT-116 [20] = assay: Induction of apoptosis in human HCT116 cells assessed as necrotic cells at 2 uM after 72 hrs by Annexin V/Propidium iodide staining based flow cytometric analysis (reference value: 0.97 %); assay type: functional
MCF7 = assay: Antiproliferative activity against human MCF7 cells assessed as cell viability after 72 hrs by MTT assay; assay type: functional, cell-based; conditions: MCF7, 72 h
HCT-116 [21] = assay: Induction of apoptosis in human HCT116 cells assessed as early apoptotic cells at 4 uM after 72 hrs by Annexin V/Propidium iodide staining based flow cytometric analysis (reference value: 5.07 %); assay type: functional
HCT-116 [22] = assay: Induction of apoptosis in human HCT116 cells assessed as decrease in mitochondrial membrane potential after 72 hrs by JC-1 staining based flow cytometric analysis; assay type: functional, cell-based
HCT-116 [23] = assay: Induction of apoptosis in human HCT116 cells assessed as mitochondrial membrane potential at 8 uM after 72 hrs by JC-1 staining based flow cytometric analysis (reference value: 98.02 %); assay type: functional
HCT-116 [24] = assay: Induction of apoptosis in human HCT116 cells assessed as necrotic cells at 8 uM after 72 hrs by Annexin V/Propidium iodide staining based flow cytometric analysis (reference value: 0.97 %); assay type: functional
HCT-116 [25] = assay: Induction of apoptosis in human HCT116 cells assessed as early apoptotic cells at 8 uM after 72 hrs by Annexin V/Propidium iodide staining based flow cytometric analysis (reference value: 5.07 %); assay type: functional
HCT-116 [26] = assay: Induction of apoptosis in human HCT116 cells assessed as mitochondrial membrane potential at 4 uM after 72 hrs by JC-1 staining based flow cytometric analysis (reference value: 98.02 %); assay type: functional
HepG2 = assay: Antiproliferative activity against human HepG2 cells assessed as cell viability after 72 hrs by MTT assay; assay type: functional, cell-based; conditions: HepG2, 72 h
[27] = Cell cycle arrest in human HCT116 cells assessed as accumulation at S phase at 2 uM after 72 hrs by Propidium iodide staining-based flow cytometric analysis (reference value: 37.29 %); assay type: functional; conditions: HCT-116
[28] = Cell cycle arrest in human HCT116 cells assessed as accumulation at G2 phase at 2 uM after 72 hrs by Propidium iodide staining-based flow cytometric analysis (reference value: 5.69 %); assay type: functional; conditions: HCT-116
[29] = Cytotoxicity against human HBMEC cells assessed as cell viability after 72 hrs by MTT assay; assay type: cell-based
A549 = assay: Antiproliferative activity against human A549 cells assessed as cell viability after 72 hrs by MTT assay; assay type: functional, cell-based; conditions: A549, 72 h
[30] = Cytotoxicity against human BEAS2B cells assessed as cell viability after 72 hrs by MTT assay; assay type: cell-based; conditions: BEAS-2B
[31] = Cell cycle arrest in human HCT116 cells assessed as accumulation at G2 phase at 8 uM after 72 hrs by Propidium iodide staining-based flow cytometric analysis (reference value: 5.69 %); assay type: functional; conditions: HCT-116

SMILES: CC(C)c1ccc(/C=C/C(=O)N[C@H]2[C@H](O[C@H]3CC[C@]4(C)[C@H]5CC=C6[C@@H]7CC(C)(C)CC[C@]7(C(=O)O)CC[C@@]6(C)[C@]5(C)CC[C@H]4C3(C)C)O[C@H](CO[C@@H]3OC[C@H](O)[C@H](O)[C@H]3O)[C@@H](O)[C@@H]2O)cc1
- viability at 8 µM (HCT-116 [1]): 28.3%
- Activity [2]: 42.8%
- IC50 (HaCaT): > 50 µM
- IC50 [3]: > 50 µM
- Activity (HCT-116 [4]): 12.21%
- Activity (HCT-116 [5]): 3.34%
- Activity (HCT-116 [6]): 86.87%
- viability at 2 µM (HCT-116 [7]): 81.6%
- Activity [8]: 40.8%
- Activity [9]: 46.5%
- IC50 [10]: > 50 µM
- Activity [11]: 42.1%
- Activity (HCT-116 [12]): 4.51%
- IC50 [13]: 7.6 µM
- Activity (HCT-116 [14]): 27%
- Activity [15]: 11.4%
- Activity (HCT-116 [16]): 28%
- Activity [17]: 53.8%
- IC50 (HeLa): > 50 µM
- viability at 4 µM (HCT-116 [18]): 63.3%
- IC50 [19]: > 50 µM
- Activity (HCT-116 [20]): 1.67%
- IC50 (MCF7): > 50 µM
- Activity (HCT-116 [21]): 5.4%
- Activity (HCT-116 [22]): Dose-dependent effect
- Activity (HCT-116 [23]): 47.79%
- Activity (HCT-116 [24]): 3.9%
- Activity (HCT-116 [25]): 40.8%
- Activity (HCT-116 [26]): 73.55%
- IC50 (HepG2): > 50 µM
- Activity [27]: 36.4%
- Activity [28]: 9.86%
- IC50 [29]: > 50 µM
- IC50 (A549): > 50 µM
- IC50 [30]: > 50 µM
- Activity [31]: 16.5%
